Legend:
[1] = test system: Phakopsora pachyrhizi; test: Protective control of soy bean rust on soy beans (Use Example 4, greenhouse comparative test); format: in vivo; conditions: soy bean seedlings, inoculated 1 day after spraying, untreated control 80
Description: The spray solutions were prepared in several steps:
The stock solutions were prepared: a mixture of acetone and/or dimethylsulfoxide and the wetting agent/emulsifier Wettol, which is based on ethoxylated alkylphenoles, in a relation (volume) solvent-emulsifier of 99 to 1 was added to 25 mg of the compound to give a total of 5 ml. Water was then added to total volume of 100 ml.
This stock solution was diluted with the described solvent-emulsifier-water mixture to the given concentration.
Leaves of pot-grown soy bean seedlings were sprayed to run-off with an aqueous suspension, containing the concentration of active ingredient or their mixture as described below. The plants were allowed to air-dry. The trial plants were cultivated for 1 day in a greenhouse chamber at 23-27° C. and a relative humidity between 60 and 80%. Then the plants were inoculated with spores of Phakopsora pachyrhizi. To ensure the success the artificial inoculation, the plants were transferred to a humid chamber with a relative humidity of about 95% and 20 to 24° C. for 24 h. The trial plants were cultivated for fourteen days in a greenhouse chamber at 23-27° C. and a relative humidity between 60 and 80%. The extent of fungal attack on the leaves was visually assessed as % diseased leaf area.

[2] = test system: Puccinia recondita (Puccrt K4); test: Curative control of brown rust on wheat (Use Example 5, greenhouse comparative test); format: in vivo; conditions: wheat seedlings, sprayed after inoculation, untreated control 90
Description: The spray solutions were prepared in several steps: The stock solutions were prepared: a mixture of acetone and/or dimethylsulfoxide and the wetting agent/emulsifier Wettol, which is based on ethoxylated alkylphenoles, in a relation (volume) solvent-emulsifier of 99 to 1 was added to 25 mg of the compound to give a total of 5 ml. Water was then added to total volume of 100 ml. This stock solution was diluted with the described solvent-emulsifier-water mixture to the given concentration. The first two developed leaves of pot-grown wheat seedling were dusted with spores of Puccinia recondita. To ensure the success the artificial inoculation, the plants were transferred to a humid chamber without light and a relative humidity of 95 to 99% and 20 to 24° C. for 24 h. The next day the plants were cultivated for 3 days in a greenhouse chamber at 20-24° C. and a relative humidity between 65 and 70%. Then the plants were sprayed to run-off with an aqueous suspension, containing the concentration of active ingredient or their mixture as described below. The plants were allowed to air-dry. Then the trial plants were cultivated for 8 days in a greenhouse chamber at 20-24° C. and a relative humidity between 65 and 70%. The extent of fungal attack on the leaves was visually assessed as % diseased leaf area.

Compound | Disease (%) at 150 ppm [1] [%] | Disease (%) at 63 ppm [2] [%]
OC(Cn1cncn1)(c1ccccc1)c1ccc(Oc2ccc(Cl)cc2)cc1Cl (stereo not drawn) [Compound I-1] | 1 | –
OC(Cc1ccccc1)(Cn1cncn1)c1ccc(Oc2ccc(Cl)cc2)cc1Cl (stereo not drawn) [Compound I-2, 2-[2-chloro-4-(4-chloro-phenoxy)-phenyl]-1-phenyl-3-[1,2,4]triazol-1-yl-propan-2-ol] | 3 | 35
OC(C#Cc1ccccc1)(Cn1cncn1)c1ccc(Oc2ccc(Cl)cc2)cc1Cl (stereo not drawn) [Compound I-4] | – | 20
OC(/C=C/c1ccccc1)(Cn1cncn1)c1ccc(Oc2ccc(Cl)cc2)cc1Cl (stereo not drawn) [Compound V20, reference compound] | 50 | 55

Source: patent publication US20140141974A1, “Fungicidal phenylalkyl-substituted 2-[2-chloro-4-(4-chloro-phenoxy)-phenyl]-1-[1,2,4]triazol-1-yl-ethanol compounds” (BASF SE, priority 2011, published 2014)
